Converted amounts (≈) assume the structure as drawn. Where two headings read alike, the source gives them in different places.
Legend:
Assay in all cases: Antibacterial activity (MIC), agar dilution
Format in all cases: cell-based
Aci. antitratus A-6 = details: 20 h, Aci. antitratus A-6; 10^6 cells per ml; 37° C., 20 hours; read-out: MIC
Description: (§1) The amount of bacteria inoculated was 10^4 cells per plate (10^6 cells per ml).

E. coli NIHJ JC-2 = details: Escherichia coli, NIHJJC2, 20 h
Description: as §1

E. coli TK-111 = details: Escherichia coli, TK111, 20 h, E. coli TK-111; 10^6 cells per ml; 37° C., 20 hours; read-out: MIC
Description: as §1

Ent. cloacae IID977 = details: Enterobacter cloacae, IID977, 20 h
Description: as §1

Kl. pneumoniae Y-41 = details: Klebsiella pneumoniae, Y41, 10^6 cells per ml, 37° C., 20 hours, read-out: MIC
Description: as §1

Kl. pneumoniae Y-50 = details: Klebsiella pneumoniae, Y50, 20 h, 10^6 cells per ml, 37° C., read-out: MIC
Description: as §1

Pro. mirabilis T-111 = details: Proteus mirabilis, 37° C.
Description: as §1

Pro. morganii T-216 = details: Morganella morganii, 37° C.
Description: as §1

Pro. vulgaris GN3027 = details: Proteus vulgaris, GN3027, 20 h, Pro. vulgaris GN3027; 10^6 cells per ml; 37° C., 20 hours; read-out: MIC
Description: as §1

Ps. aeruginosa IFO3445 = details: Pseudomonas aeruginosa; Ps. aeruginosa IFO3445; 10^6 cells per ml; 37° C., 20 hours; read-out: MIC
Description: as §1

Ps. aeruginosa S-68 = details: Pseudomonas aeruginosa, S68; Ps. aeruginosa S-68; 10^6 cells per ml; 37° C., 20 hours; read-out: MIC
Description: as §1

St. aureus FDA209P = details: Staphylococcus aureus, FDA209P, 20 h
Description: as §1

E. coli TK-3* = details: Escherichia coli, 20 h
Description: as §1
(§2) * Penicillinase-producing bacteria

Kl. pneumoniae Y-4* = details: Klebsiella pneumoniae, 20 h, Kl. pneumoniae Y-4, penicillinase-producing; 10^6 cells per ml; read-out: MIC
Description: as §1, §2

Ps. aeruginosa GN3379* = details: Pseudomonas aeruginosa, 20 h; Ps. aeruginosa GN3379, penicillinase-producing; 10^6 cells per ml; read-out: MIC
Description: as §1, §2

St. aureus F-137* = details: Staphylococcus aureus, 20 h, St. aureus F-137, penicillinase-producing; 10^6 cells per ml; read-out: MIC
Description: as §1, §2

E. coli GN5482** = details: Escherichia coli, 20 h; E. coli GN5482, cephalospolinase-producing; 10^6 cells per ml; read-out: MIC
Description: as §1
(§3) ** Cephalospolinase-producing bacteria

Pro. vulgaris GN76** = details: Proteus vulgaris, 20 h; Pro. vulgaris GN76, cephalospolinase-producing; 10^6 cells per ml; read-out: MIC
Description: as §1, §3

Ps. aeruginosa GN918** = details: Pseudomonas aeruginosa, 20 h; Ps. aeruginosa GN918, cephalospolinase-producing; 10^6 cells per ml; read-out: MIC
Description: as §1, §3

[1] = E. coli NIHJ JC-2, 10^6 cells per ml, 37° C., 20 hours, read-out: MIC
[2] = Ent. cloacae IID977, 10^6 cells per ml, 37° C., 20 hours, read-out: MIC
[3] = T111, 10^6 cells per ml, 20 hours, read-out: MIC
[4] = St. aureus FDA209P, 10^6 cells per ml, 37° C., 20 hours, read-out: MIC
[5] = E. coli TK-3, penicillinase-producing, 10^6 cells per ml, read-out: MIC
[6] = T216, 10^6 cells per ml, 20 hours, read-out: MIC

SMILES	MIC (Aci. antitratus A-6) [µg/mL]	MIC (E. coli NIHJ JC-2; [1]) [µg/mL]	MIC (E. coli TK-111) [µg/mL]	MIC (Ent. cloacae IID977; [2]) [µg/mL]	MIC (Kl. pneumoniae Y-41) [µg/mL]	MIC (Kl. pneumoniae Y-50) [µg/mL]	MIC (Pro. mirabilis T-111; [3]) [µg/mL]	MIC (Pro. morganii T-216; T216, 20 h, 10^6 cells per ml) [µg/mL]	MIC (Pro. vulgaris GN3027) [µg/mL]	MIC (Ps. aeruginosa IFO3445) [µg/mL]	MIC (Ps. aeruginosa S-68) [µg/mL]	MIC (St. aureus FDA209P; [4]) [µg/mL]	MIC (E. coli TK-3*; [5]) [µg/mL]	MIC (Kl. pneumoniae Y-4*) [µg/mL]	MIC (Ps. aeruginosa GN3379*) [µg/mL]	MIC (St. aureus F-137*) [µg/mL]	MIC (E. coli GN5482**) [µg/mL]	MIC (Pro. vulgaris GN76**) [µg/mL]	MIC (Ps. aeruginosa GN918**) [µg/mL]	MIC (E. coli NIHJ JC-2) [µg/mL]	further results
O=C(O)c1cn(-c2ccc(F)cc2)c(C=Cc2ccncc2)cc1=O	12.5 (≈ 37.2 µM)	12.5 (≈ 37.2 µM)	0.39 (≈ 1.16 µM)	3.13 (≈ 9.31 µM)	6.25 (≈ 18.6 µM)	0.78 (≈ 2.32 µM)	12.5 (≈ 37.2 µM)	6.25 (≈ 18.6 µM)	0.2 (≈ 0.595 µM)	50 (≈ 149 µM)	12.5 (≈ 37.2 µM)	12.5 (≈ 37.2 µM)	1.56 (≈ 4.64 µM)	6.25 (≈ 18.6 µM)	25 (≈ 74.3 µM)	12.5 (≈ 37.2 µM)	0.2 (≈ 0.595 µM)	0.78 (≈ 2.32 µM)	25 (≈ 74.3 µM)	–	–
O=C(O)c1cn(-c2ccc(F)cc2)c(-c2sccc2-c2ccc([N+](=O)[O-])cc2)cc1=O	0.78 (≈ 1.79 µM)	–	0.2 (≈ 0.458 µM)	3.13 (≈ 7.17 µM)	6.25 (≈ 14.3 µM)	1.56 (≈ 3.57 µM)	–	1.56 (≈ 3.57 µM)	0.39 (≈ 0.894 µM)	12.5 (≈ 28.6 µM)	12.5 (≈ 28.6 µM)	0.28 (≈ 0.642 µM)	3.13 (≈ 7.17 µM)	6.25 (≈ 14.3 µM)	25 (≈ 57.3 µM)	0.1 (≈ 0.229 µM)	0.2 (≈ 0.458 µM)	3.13 (≈ 7.17 µM)	12.5 (≈ 28.6 µM)	1.56 (≈ 3.57 µM)	MIC (Pro. mirabilis T-111; T111, 20 h, 10^6 cells per ml): 6.25 µg/mL (≈ 14.3 µM)
O=C(O)c1cn(-c2ccc(O)cc2)c(-c2ccc(-c3ccc(Cl)s3)cc2)cc1=O	0.1 (≈ 0.236 µM)	0.2 (≈ 0.472 µM)	0.1 (≈ 0.236 µM)	0.78 (≈ 1.84 µM)	1.56 (≈ 3.68 µM)	0.39 (≈ 0.92 µM)	–	–	≤ 0.1	3.13 (≈ 7.38 µM)	3.13 (≈ 7.38 µM)	≤ 0.05	0.78 (≈ 1.84 µM)	1.56 (≈ 3.68 µM)	3.13 (≈ 7.38 µM)	≤ 0.05	≤ 0.05	0.39 (≈ 0.92 µM)	0.78 (≈ 1.84 µM)	–	MIC (Pro. mirabilis T-111; T111, 20 h, 10^6 cells per ml): 1.56 µg/mL (≈ 3.68 µM); MIC (Pro. morganii T-216; [6]): 0.78 µg/mL (≈ 1.84 µM)
Nc1ccc(-c2cc(=O)c(C(=O)O)cn2-c2ccc(O)cc2)cc1	25 (≈ 77.6 µM)	–	0.78 (≈ 2.42 µM)	–	12.5 (≈ 38.8 µM)	3.13 (≈ 9.71 µM)	25 (≈ 77.6 µM)	3.13 (≈ 9.71 µM)	0.39 (≈ 1.21 µM)	25 (≈ 77.6 µM)	25 (≈ 77.6 µM)	–	–	12.5 (≈ 38.8 µM)	25 (≈ 77.6 µM)	6.25 (≈ 19.4 µM)	0.1 (≈ 0.31 µM)	1.56 (≈ 4.84 µM)	25 (≈ 77.6 µM)	3.13 (≈ 9.71 µM)	MIC (Ent. cloacae IID977): 12.5 µg/mL (≈ 38.8 µM); MIC (St. aureus FDA209P): 3.13 µg/mL (≈ 9.71 µM); MIC (E. coli TK-3*): 3.13 µg/mL (≈ 9.71 µM)
O=C(O)c1cn(-c2ccc(O)cc2)c(-c2ccc3sccc3c2)cc1=O	0.1 (≈ 0.275 µM)	0.2 (≈ 0.55 µM)	≤ 0.05	0.78 (≈ 2.15 µM)	0.78 (≈ 2.15 µM)	0.2 (≈ 0.55 µM)	0.78 (≈ 2.15 µM)	–	≤ 0.05	1.56 (≈ 4.29 µM)	3.13 (≈ 8.61 µM)	–	0.39 (≈ 1.07 µM)	0.78 (≈ 2.15 µM)	1.56 (≈ 4.29 µM)	0.39 (≈ 1.07 µM)	≤ 0.05	0.2 (≈ 0.55 µM)	0.39 (≈ 1.07 µM)	–	MIC (Pro. morganii T-216; [6]): 0.39 µg/mL (≈ 1.07 µM)
Cc1cc(O)ccc1-n1cc(C(=O)O)c(=O)cc1C1CCCCC1 [drawing 12]	0.78 (≈ 2.38 µM)	–	0.78 (≈ 2.38 µM)	3.13 (≈ 9.56 µM)	6.25 (≈ 19.1 µM)	1.56 (≈ 4.77 µM)	–	6.25 (≈ 19.1 µM)	0.2 (≈ 0.611 µM)	50 (≈ 153 µM)	50 (≈ 153 µM)	0.78 (≈ 2.38 µM)	3.13 (≈ 9.56 µM)	12.5 (≈ 38.2 µM)	> 100	0.78 (≈ 2.38 µM)	0.1 (≈ 0.305 µM)	3.13 (≈ 9.56 µM)	3.13 (≈ 9.56 µM)	1.56 (≈ 4.77 µM)	MIC (Pro. mirabilis T-111; T111, 20 h, 10^6 cells per ml): 12.5 µg/mL (≈ 38.2 µM)
